Laboratory results from patent publication US20260130894A1, “COMPOSITION COMPRISING ISOQUINOLINE DERIVATIVE AS ACTIVE INGREDIENT FOR PREVENTION OR TREATMENT OF PARKINSON'S DISEASE” (ALTMEDICAL CO., LTD., priority 2022, published 2026).

Key:
[1] = tested on: mitochondrial membrane potential; test: Mitochondrial membrane potential, TMRM assay; format: cell-based; conditions: CD1-012 10 μM or 15 μM, CCCP 10 μM, 24 hours (FIG. 6)
Description: (§1) It was confirmed whether the isoquinoline derivative according to the present invention induces mitochondrial dysfunction, similar to CCCP. To this end, the CD1-012 (10 μM or 15 μM) and CCCP (10 μM) were treated for 24 hours, and the mitochondrial membrane potential and mitochondrial reactive oxygen species (ROS) levels in each sample were analyzed. Mitochondrial membrane potential was analyzed using the TMRM (tetramethylrhodamine methyl ester) assay, and mitochondrial ROS levels were analyzed using the MitoSOX assay.

[2] = tested on: mitochondrial reactive oxygen species (ROS); test: Mitochondrial reactive oxygen species, MitoSOX assay; format: cell-based; conditions: CD1-012 10 μM or 15 μM, CCCP 10 μM, 24 hours (FIG. 6)
Description: as §1

[3] = tested on: BEAS-2B cell line, in which PINK1 was knocked down; test: Mitophagy activity in PINK1 knockdown (shPINK1) BEAS-2B cells (FACS); format: cell-based, human; conditions: CCCP 10 μM, CD1-012 15 μM, 18 hours (FIG. 7)
From the text: In this example, it was confirmed whether the mitophagy activation function of the isoquinoline derivative according to the present invention is dependent on the PINK1-Parkin pathway. […]
In the following example, it was confirmed whether the novel isoquinoline derivative according to the present invention has a therapeutic effect of preventing or improving Parkinson's disease. Most of all, it was confirmed whether the treatment with the isoquinoline derivative improves mitochondrial dysfunction of a Parkinson's disease cell model. To this end, first, the induction of mitophagy by CD1-012 was verified. […] In addition, to analyze whether the mitophagy-promoting activity of CD1-012 is dependent on PINK1, PINK1 expression was inhibited (using shPNIK1) in BEAS-2B cells, which is a human normal lung cell line expressing a mitochondrial fluorescent protein, and mitophagy activity was analyzed by flow cytometry (FACS).

BEAS-2B cell line = test: Mitophagy activity in BEAS-2B cells expressing mt-Keima (FACS, confocal microscope, mito-YFP); format: cell-based, human; conditions: BEAS-2B mt-Keima (FIG. 5)
Description: To analyze the mitophagy-promoting activity effect of the CD1-012 synthesized in the Example 1, the BEAS-2B cell line, which is a human normal lung cell line, was induced to express the mt-Keima fluorescent protein. Following this, the CD1-012 (15 μM) and the compound of Comparative Example 1, CCCP (10 μM), were treated for 24 hours. After the treatment, the mitophagy activity of each sample was measured, and the results were represented in FIGS. 1A to 1C.
Specifically, FIG. 1A represents the analysis results using flow cytometry (FACS) (treatment of CD1-012 at 15 μM for 24 hours), FIG. 1B represents the analysis results using a confocal microscope (treatment of CD1-012 at 15 μM for 18 hours), and FIG. 1C represents the measurement results of the quantitative changes in the mitochondria using a fluorescent protein, mito-YFP, which includes a targeting sequence to transport protein to the mitochondria (treatment of CD1-012 at 20 μM for 24 hours).
It was confirmed whether CD1-012 synthesized in Example 1 promotes mitophagy activity in a concentration- and time-dependent manner. To this end, the CD1-012 was treated at various concentrations or at a fixed concentration (15 μM) for different treatment durations in the BEAS-2B cell line expressing mt-Keima, and mitophagy activity was measured using a flow cytometer.
It was confirmed whether CD1-012 synthesized in Example 1 specifically increases only mitophagy activity. To this end, the BEAS-2B cell line expressing mt-Keima was treated with CD1-012 (15 μM) or Comparative Example 1 (CCCP, 10 μM) for 18 hours, and mitophagy activity was analyzed using a confocal microscope. Additionally, to measure autophagy activity, the BEAS-2B cell line expressing Keima fluorescent protein was incubated in Hanks' balanced salt solution (HBSS) for 3 hours to induce a starvation condition (starv.), and the results were compared with samples treated with CD1-012 (15 μM) for 18 hours using a confocal microscope.
To this end, the human normal lung cell line BEAS-2B, expressing mt-Keima fluorescent protein, was treated with CD1-012, Comparative Example 2 (palmatine), or Comparative Example 3 (berberine) at various concentrations, and the mitophagy-inducing activity of each sample was compared.

Compound	mitochondrial membrane potential [1]	mitochondrial ROS levels [2]	mitophagy activation in PINK1 knockdown cell line (shPINK1) compared to control cell line (shNT) [3]	concentration at which mitophagy activity reached its maximum (BEAS-2B cell line) [µM]
N#CC(C#N)=NNc1cccc(Cl)c1 [CCCP, Carbonyl cyanide 3-chlorophenylhydrazone, reference compound]	significantly reduced	significantly increased	significantly decreased	
COc1ccc2cc3[n+](cc2c1OC)CCc1cc2c(cc1-3)OCO2 [berberine, Berberine, reference compound]				80
COc1cc2c(cc1OC)-c1cc3ccc(OC)c(OC)c3c[n+]1CC2 [palmatine, Palmatine, reference compound]				400
